“And” between values parts separate entries of the source, which are not always exact repeats. Equal values may be shown once.
Key:
[1] = target: 5'-AMP-activated protein kinase catalytic subunit alpha-1 (Homo sapiens) (UniProt Q13131); test: Enzymatic radiometric [Km ATP] KinaseProfiler LeadHunter assay, kinase: AMPK-alpha1, catalogue number: 14-840KP The assay has been performed by Eurofins Discovery.; conditions: ATP concentration 45.0 uM, Test compound concentration 10.0 uM
[2] = target: CDK7/Cyclin H/MNAT1 (Homo sapiens) (UniProt P51946+P50613+P51948); test: Enzymatic radiometric [Km ATP] KinaseProfiler LeadHunter assay, kinase: CDK7/cyclinH/MAT1, catalogue number: 14-476KP The assay has been performed by Eurofins Discovery.; type: protein-complex assay; conditions: ATP concentration 90.0 uM, Test compound concentration 10.0 uM
[3] = target: T1, Eukaryotic elongation factor 2 kinase (Homo sapiens) (UniProt O00418); test: Enzymatic radiometric [Km ATP] KinaseProfiler LeadHunter assay, kinase: eEF-2K, catalogue number: 14-654KP The assay has been performed by Eurofins Discovery.; conditions: ATP concentration 15.0 uM, Test compound concentration 10.0 uM
T1 sequence (whole entry): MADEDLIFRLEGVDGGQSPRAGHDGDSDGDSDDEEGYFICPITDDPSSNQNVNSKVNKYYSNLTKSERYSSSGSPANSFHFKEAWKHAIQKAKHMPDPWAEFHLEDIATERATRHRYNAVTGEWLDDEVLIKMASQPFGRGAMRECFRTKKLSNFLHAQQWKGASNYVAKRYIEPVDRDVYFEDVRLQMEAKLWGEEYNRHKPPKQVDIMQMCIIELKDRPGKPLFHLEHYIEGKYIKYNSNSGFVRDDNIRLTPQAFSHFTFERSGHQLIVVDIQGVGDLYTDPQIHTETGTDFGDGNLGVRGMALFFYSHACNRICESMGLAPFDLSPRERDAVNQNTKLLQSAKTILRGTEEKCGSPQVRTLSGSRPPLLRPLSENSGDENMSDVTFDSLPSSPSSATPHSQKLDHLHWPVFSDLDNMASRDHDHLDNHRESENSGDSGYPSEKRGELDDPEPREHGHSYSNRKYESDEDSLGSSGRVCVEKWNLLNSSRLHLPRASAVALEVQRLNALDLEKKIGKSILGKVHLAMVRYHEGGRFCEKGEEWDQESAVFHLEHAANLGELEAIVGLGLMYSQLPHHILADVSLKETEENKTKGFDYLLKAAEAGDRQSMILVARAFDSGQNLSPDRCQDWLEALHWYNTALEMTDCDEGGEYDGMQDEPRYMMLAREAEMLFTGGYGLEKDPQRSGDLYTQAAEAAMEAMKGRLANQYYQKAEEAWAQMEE

[4] = target: Epidermal growth factor receptor (Homo sapiens) (UniProt P00533); test: Enzymatic radiometric [Km ATP] KinaseProfiler LeadHunter assay, kinase: EGFR, catalogue number: 14-531KP The assay has been performed by Eurofins Discovery.; conditions: ATP concentration 10.0 uM, Test compound concentration 10.0 uM
[5] = target: Ephrin type-A receptor 5 (Homo sapiens) (UniProt P54756); test: Enzymatic radiometric [Km ATP] KinaseProfiler LeadHunter assay, kinase: EphA5, catalogue number: 14-639KP The assay has been performed by Eurofins Discovery.; conditions: ATP concentration 10.0 uM, Test compound concentration 10.0 uM
[6] = target: Protein kinase C theta type (Homo sapiens) (UniProt Q04759); test: Enzymatic radiometric [Km ATP] KinaseProfiler LeadHunter assay, kinase: PKC-theta, catalogue number: 14-444KP The assay has been performed by Eurofins Discovery.; conditions: ATP concentration 15.0 uM, Test compound concentration 10.0 uM
[7] = target: T2, MAP kinase-activated protein kinase 5 (Homo sapiens) (UniProt Q8IW41); test: Enzymatic radiometric [Km ATP] KinaseProfiler LeadHunter assay, kinase: PRAK, catalogue number: 14-334KP The assay has been performed by Eurofins Discovery.; conditions: ATP concentration 15.0 uM, Test compound concentration 10.0 uM
T2 sequence (whole entry): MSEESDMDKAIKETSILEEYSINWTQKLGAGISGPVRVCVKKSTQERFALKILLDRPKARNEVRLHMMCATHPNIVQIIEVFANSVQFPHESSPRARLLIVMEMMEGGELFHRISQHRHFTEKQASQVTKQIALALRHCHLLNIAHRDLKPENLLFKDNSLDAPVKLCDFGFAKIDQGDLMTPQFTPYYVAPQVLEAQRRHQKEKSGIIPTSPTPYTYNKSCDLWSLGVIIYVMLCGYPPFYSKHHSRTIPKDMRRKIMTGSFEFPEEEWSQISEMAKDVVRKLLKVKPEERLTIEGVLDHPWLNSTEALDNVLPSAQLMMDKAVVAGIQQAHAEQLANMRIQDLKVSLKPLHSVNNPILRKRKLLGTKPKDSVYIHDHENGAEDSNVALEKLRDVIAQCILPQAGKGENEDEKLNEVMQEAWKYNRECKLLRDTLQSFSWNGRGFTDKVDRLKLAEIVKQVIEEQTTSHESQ

[8] = target: T3, Mitogen-activated protein kinase kinase kinase 7 (Homo sapiens) (UniProt O43318); test: Enzymatic radiometric [Km ATP] KinaseProfiler LeadHunter assay, kinase: TAK1, catalogue number: 14-600KP The assay has been performed by Eurofins Discovery.; conditions: ATP concentration 45.0 uM, Test compound concentration 10.0 uM
T3 sequence (whole entry): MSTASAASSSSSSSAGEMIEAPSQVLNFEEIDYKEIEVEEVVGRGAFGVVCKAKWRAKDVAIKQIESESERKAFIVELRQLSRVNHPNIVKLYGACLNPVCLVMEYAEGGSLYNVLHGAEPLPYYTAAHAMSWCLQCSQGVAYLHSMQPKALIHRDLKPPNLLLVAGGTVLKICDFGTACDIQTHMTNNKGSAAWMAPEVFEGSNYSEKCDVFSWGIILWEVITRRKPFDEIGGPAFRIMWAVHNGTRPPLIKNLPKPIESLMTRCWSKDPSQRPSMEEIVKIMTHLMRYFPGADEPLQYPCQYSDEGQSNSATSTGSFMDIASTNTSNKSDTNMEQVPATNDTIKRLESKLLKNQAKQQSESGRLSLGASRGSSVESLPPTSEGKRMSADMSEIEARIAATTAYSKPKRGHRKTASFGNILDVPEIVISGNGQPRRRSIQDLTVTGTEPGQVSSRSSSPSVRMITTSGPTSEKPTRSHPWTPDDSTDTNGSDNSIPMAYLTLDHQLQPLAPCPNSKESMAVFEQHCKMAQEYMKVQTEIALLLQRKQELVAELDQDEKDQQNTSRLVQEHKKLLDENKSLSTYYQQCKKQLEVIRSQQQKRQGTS

[9] = target: Phosphatidylinositol 4,5-bisphosphate 3-kinase catalytic subunit gamma isoform (Homo sapiens) (UniProt P48736); test: Enzymatic radiometric [Km ATP] KinaseProfiler LeadHunter assay, kinase: PI3 Kinase (p120-gamma), catalogue number: 14-558KP The assay has been performed by Eurofins Discovery.; conditions: ATP concentration 100.0 uM, Test compound concentration 10.0 uM
Sequence of Phosphatidylinositol 4,5-bisphosphate 3-kinase catalytic subunit gamma isoform (Homo sapiens) (P48736 whole entry, looked up, canonical isoform): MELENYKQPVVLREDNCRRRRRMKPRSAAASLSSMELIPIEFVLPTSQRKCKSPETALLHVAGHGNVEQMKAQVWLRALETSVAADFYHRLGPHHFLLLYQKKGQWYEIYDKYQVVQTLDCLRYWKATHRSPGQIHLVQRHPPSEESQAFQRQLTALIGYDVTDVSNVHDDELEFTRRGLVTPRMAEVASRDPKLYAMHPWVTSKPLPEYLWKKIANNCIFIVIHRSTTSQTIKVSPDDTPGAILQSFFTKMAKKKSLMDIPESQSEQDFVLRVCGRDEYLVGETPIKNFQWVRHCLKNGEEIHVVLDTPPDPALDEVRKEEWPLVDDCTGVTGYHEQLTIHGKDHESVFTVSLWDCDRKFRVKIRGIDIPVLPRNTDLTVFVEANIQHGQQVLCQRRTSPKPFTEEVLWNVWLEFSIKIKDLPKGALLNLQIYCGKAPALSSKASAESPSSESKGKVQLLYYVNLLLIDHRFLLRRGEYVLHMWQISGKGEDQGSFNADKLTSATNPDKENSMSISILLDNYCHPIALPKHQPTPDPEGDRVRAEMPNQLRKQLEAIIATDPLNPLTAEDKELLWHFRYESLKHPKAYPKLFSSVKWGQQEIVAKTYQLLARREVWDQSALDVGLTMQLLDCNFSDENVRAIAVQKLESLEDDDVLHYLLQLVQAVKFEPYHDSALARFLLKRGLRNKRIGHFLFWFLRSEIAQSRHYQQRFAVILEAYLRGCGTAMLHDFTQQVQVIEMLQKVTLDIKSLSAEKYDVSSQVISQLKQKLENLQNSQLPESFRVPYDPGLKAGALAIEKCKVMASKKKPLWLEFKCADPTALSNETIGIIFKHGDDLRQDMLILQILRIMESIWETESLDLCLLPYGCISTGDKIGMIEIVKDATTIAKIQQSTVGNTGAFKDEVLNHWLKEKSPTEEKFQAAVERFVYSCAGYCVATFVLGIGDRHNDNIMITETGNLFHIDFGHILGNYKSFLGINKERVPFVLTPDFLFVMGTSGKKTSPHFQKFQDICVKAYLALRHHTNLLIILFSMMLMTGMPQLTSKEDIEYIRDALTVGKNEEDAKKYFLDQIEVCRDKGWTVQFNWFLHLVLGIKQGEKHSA

Sequence of Protein kinase C theta type (Homo sapiens) (Q04759 whole entry, looked up): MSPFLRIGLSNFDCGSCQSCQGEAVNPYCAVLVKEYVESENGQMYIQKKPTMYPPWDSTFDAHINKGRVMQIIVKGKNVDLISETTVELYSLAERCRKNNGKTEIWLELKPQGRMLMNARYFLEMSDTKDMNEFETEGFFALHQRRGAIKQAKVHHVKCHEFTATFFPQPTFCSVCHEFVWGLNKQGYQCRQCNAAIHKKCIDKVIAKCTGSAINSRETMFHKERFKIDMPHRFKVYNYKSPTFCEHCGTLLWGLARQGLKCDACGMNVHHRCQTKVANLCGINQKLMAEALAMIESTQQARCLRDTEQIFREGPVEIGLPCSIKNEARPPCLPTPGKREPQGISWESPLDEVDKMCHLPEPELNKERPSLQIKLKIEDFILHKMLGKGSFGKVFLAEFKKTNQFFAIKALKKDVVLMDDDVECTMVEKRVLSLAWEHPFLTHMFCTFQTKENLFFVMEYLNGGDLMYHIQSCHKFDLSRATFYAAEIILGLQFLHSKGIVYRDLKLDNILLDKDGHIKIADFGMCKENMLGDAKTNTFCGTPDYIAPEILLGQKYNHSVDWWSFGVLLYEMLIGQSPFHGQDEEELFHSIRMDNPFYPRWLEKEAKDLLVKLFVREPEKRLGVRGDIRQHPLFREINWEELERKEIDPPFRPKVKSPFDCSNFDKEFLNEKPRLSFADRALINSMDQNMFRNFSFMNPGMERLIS
Sequence of Epidermal growth factor receptor (Homo sapiens) (P00533 whole entry): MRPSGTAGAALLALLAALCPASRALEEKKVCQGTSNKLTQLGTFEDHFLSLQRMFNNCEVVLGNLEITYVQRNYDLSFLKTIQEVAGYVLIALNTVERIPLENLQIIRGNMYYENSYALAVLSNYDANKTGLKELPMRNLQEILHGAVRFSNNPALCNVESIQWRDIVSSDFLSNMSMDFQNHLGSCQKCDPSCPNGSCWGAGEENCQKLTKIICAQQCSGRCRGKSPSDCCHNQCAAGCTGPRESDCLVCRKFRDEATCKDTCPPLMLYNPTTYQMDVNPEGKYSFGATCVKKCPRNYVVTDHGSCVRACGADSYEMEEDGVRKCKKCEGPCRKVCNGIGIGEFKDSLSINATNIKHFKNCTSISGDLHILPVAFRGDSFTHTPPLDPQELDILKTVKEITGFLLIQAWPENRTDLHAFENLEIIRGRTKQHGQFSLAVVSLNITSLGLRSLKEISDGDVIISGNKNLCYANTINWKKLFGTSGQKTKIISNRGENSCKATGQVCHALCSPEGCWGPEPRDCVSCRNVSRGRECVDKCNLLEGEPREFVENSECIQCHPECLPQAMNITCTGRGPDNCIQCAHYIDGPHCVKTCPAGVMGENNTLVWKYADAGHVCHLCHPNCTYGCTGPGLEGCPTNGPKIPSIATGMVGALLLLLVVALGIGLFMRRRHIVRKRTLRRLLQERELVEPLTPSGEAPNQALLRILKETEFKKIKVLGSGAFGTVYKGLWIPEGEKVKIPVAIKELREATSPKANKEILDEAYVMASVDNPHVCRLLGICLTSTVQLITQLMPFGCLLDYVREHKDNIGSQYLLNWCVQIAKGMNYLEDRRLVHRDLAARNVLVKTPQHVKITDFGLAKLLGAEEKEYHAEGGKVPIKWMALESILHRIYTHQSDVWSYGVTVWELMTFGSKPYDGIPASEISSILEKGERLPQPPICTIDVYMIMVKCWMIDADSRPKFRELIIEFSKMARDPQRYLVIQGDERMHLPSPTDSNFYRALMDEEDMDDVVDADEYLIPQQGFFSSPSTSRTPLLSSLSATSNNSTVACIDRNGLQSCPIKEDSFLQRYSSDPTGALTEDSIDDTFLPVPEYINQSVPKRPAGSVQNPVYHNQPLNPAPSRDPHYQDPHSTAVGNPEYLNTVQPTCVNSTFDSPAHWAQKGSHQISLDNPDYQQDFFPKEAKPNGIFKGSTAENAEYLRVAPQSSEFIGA
Sequence of Ephrin type-A receptor 5 (Homo sapiens) (P54756 whole entry): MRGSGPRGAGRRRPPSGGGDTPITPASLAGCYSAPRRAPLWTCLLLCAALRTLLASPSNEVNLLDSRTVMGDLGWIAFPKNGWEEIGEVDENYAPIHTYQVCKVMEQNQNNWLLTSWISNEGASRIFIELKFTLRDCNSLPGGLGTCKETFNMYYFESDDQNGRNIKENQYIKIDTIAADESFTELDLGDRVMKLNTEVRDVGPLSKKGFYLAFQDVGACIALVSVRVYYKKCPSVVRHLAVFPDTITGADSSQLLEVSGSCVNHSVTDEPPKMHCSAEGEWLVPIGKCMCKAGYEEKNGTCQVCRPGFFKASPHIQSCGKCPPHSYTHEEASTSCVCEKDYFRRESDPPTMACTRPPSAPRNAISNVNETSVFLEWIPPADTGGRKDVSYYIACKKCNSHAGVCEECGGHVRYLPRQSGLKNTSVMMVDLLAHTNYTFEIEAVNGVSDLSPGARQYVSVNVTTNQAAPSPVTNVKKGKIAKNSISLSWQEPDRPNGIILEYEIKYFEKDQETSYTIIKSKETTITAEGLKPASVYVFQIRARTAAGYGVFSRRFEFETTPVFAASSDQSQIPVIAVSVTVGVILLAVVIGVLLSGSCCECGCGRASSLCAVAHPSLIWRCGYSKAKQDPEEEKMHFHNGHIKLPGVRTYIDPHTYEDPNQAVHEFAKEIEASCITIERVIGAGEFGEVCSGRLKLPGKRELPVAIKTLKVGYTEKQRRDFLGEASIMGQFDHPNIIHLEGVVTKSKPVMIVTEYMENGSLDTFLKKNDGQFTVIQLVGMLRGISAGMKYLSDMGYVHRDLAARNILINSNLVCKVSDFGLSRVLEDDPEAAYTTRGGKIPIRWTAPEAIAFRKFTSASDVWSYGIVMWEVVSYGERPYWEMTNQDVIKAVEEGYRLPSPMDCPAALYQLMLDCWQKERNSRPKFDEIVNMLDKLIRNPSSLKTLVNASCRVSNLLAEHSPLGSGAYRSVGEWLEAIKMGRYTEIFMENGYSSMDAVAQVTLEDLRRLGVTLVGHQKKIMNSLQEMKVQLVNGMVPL
Sequence of 5'-AMP-activated protein kinase catalytic subunit alpha-1 (Homo sapiens) (Q13131 whole entry, looked up): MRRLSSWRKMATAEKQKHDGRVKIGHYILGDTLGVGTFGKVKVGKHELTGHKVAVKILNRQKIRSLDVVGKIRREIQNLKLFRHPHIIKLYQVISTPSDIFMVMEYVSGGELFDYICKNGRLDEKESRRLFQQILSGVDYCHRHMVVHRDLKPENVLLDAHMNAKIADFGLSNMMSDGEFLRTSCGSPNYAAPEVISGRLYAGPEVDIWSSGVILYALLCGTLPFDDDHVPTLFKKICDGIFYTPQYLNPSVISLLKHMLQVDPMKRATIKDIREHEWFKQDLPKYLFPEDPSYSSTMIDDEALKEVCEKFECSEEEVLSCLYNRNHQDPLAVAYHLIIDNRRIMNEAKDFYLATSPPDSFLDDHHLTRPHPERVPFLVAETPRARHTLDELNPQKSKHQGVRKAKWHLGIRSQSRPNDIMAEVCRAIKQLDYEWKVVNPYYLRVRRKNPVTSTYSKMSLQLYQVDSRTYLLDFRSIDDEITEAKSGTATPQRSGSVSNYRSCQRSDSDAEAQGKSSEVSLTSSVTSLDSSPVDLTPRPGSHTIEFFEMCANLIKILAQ

| SMILES | Activity [1] | Activity [2] | Activity [3] | Activity [4] | Activity [5] | Activity [6] | Activity [7] | Activity [8] | Activity [9] |
| --- | --- | --- | --- | --- | --- | --- | --- | --- | --- |
| CNC(=O)Cn1cc(-c2cc3c(N[C@@H](c4ccc5c(c4)S(=O)(=O)CCC5)C(C)C)ncnc3[nH]2)cn1 | 104% | 95% | 94% | 98% | 80% | 91% | 89% | 99% | 93% |
| CC(C)[C@@H](Nc1ncnc2[nH]ccc12)c1ccc2c(c1)S(=O)(=O)CCC2 | 94% | 85% | 92% | 102% | 110% | 101% | 107% | 83% | 103% |
| Cc1nn(C)cc1-c1cc2c(N[C@H](c3ccc4c(c3)S(=O)(=O)CCC4)C(C)C)ncnc2[nH]1 | 102% | 93% | 98% | 87% | 74% | 106% | 82% | 100% | 96% |
| Cn1ncc(-c2cc3c(N[C@@H](c4ccc5c(n4)OCCO5)C(C)(C)C)ncnc3[nH]2)c1C#N | 109% | 108% | 124% | 99% | 102% | 96% | 86% | 95% | 88% |
| CC(C)[C@H](Nc1ncnc2[nH]c(-c3cnn(C)c3C#N)cc12)c1ccc2c(n1)OCCO2 | 111% | 98% | 108% | 90% | 102% | 96% | 84% | 94% | 80% |
| CNCc1cc(-c2cc3c(N[C@@H](c4ccc5c(c4)S(=O)(=O)CCC5)C(C)C)ncnc3[nH]2)co1 | 86% | 100% | 82% | 97% | 78% | 106% | 122% | 90% | 96% |
| COc1ccc([C@H](Cc2nnn[nH]2)NC(=O)c2ncnc3[nH]ccc23)cc1 | 97% | 107% | 96% | 97% | 102% | 91% | 109% | 99% | 88% |
| COc1ccc([C@@H](Cc2nnn[nH]2)NC(=O)c2ncnc3[nH]ccc23)cc1 | 101% | 91% | 96% | 96% | 106% | 90% | 95% | 88% | 89% |
| CC(C)[C@H](Nc1ncnc2[nH]ccc12)c1ccc2c(c1)S(=O)(=O)CCC2 | 104% | 89% | 93% | 95% | 102% | 88% | 102% | 90% | 98% |
| CC(C)[C@@H](Nc1ncnc2[nH]c(-c3cnn(C)c3C#N)cc12)c1ccc2c(n1)OCCO2 | 116% and 99% | 101% and 102% | 111% and 106% | 81% and 77% | 91% and 90% | 93% and 111% | 95% and 89% | 103% and 100% | 63% and 78% |
| C[C@H](C(=O)O)[C@@H](NC(=O)c1ncnc2[nH]ccc12)c1ccc(Br)cc1 | 93% | 99% | 85% | 93% | 99% | 100% | 88% | 95% | 97% |
| CC(C)[C@@H](Nc1ncnc2[nH]c(C(=O)N[C@@H]3CCN(C)C3)cc12)c1ccc2c(c1)S(=O)(=O)CCC2 | 107% | 101% | 89% | 102% | 100% | 102% | 111% | 100% | 97% |

From ChEMBL document CHEMBL5442741, “ASAP - In vitro kinase profile” (2024)
